The values that follow come from patent US6548518B2, “Methods of treating gastro-esophogeal reflux disease using (-) norcisapride in combination with proton pump inhibitors or H2 receptor antagonists” (Sepracor, Inc., priority 1999, dated 2003).

For data set [1] the following is noted: co-administration with ketoconazole; inhibition of metabolic elimination of cisapride; cited from earlier work.
The target in data set [2] is T1, 5-HT3 receptor (Mus musculus, UniProt P23979).
T1 construct: host or cells: N1E-115 cells
T1 sequence (P23979 24-489): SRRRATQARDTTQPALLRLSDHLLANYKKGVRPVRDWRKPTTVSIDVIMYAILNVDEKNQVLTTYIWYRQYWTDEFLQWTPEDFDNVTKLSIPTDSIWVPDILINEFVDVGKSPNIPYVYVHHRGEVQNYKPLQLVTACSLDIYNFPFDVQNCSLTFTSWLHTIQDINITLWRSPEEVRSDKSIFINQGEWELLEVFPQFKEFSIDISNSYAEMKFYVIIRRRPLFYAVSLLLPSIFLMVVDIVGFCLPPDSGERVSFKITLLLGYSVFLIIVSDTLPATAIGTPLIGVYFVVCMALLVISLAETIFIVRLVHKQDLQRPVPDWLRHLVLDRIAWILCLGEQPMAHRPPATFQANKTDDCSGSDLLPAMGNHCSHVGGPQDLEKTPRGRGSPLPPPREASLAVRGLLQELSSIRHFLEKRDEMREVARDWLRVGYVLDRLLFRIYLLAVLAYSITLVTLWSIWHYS
In words: Radioligand binding to 5-HT3 receptor subtypes derived from N1E-115 cells (Cerep). Particulars: Table 3; ratio of IC50 at 5-HT3 to IC50 at 5-HT4. Here is the method:
Following incubation with the appropriate ligands, the preparations were rapidly filtered under vacuum through GF/B glass fiber filters and washed with ice-cold buffer using a Brandel or Packard cell harvester.
Specific radioligand binding to the receptor was defined as the difference between total binding and nonspecific binding determined in the presence of an excess of unlabeled ligand. Results were expressed as a percent inhibition of specific binding obtained in the presence of the compounds.

Take `COc1cc(N)c(Cl)cc1C(=O)N[C@H]1CCN(CCCOc2ccc(F)cc2)C[C@H]1OC` (racemic) [(±) Cisapride, cis-4-amino-5-chloro-N-[1-[3-(4-fluorophenoxy)propyl]-3-methoxy-4-piperidinyl]-2-methoxybenzamide]: the “increase of the steady-state plasma levels” value in data set [1] is on record as 8 fold.

Consider `COc1cc(N)c(Cl)cc1C(=O)NC1CCNCC1OC` (racemic) [(±) Norcisapride, 4-amino-5-chloro-N-(3-methoxy-4-piperidinyl)-2-methoxybenzamide], for which the “5-HT3/5-HT4 Ratio” value in data set [2] was 0.012.

On to `COc1cc(N)c(Cl)cc1C(=O)NC1CCNCC1OC` (single isomer, unassigned; (+)) [(+) Norcisapride], for which, in data set [2], the “5-HT3/5-HT4 Ratio” value is 0.014.

As for `COc1cc(N)c(Cl)cc1C(=O)NC1CCNCC1OC` (single isomer, unassigned; (-)) [(−) Norcisapride], the “5-HT3/5-HT4 Ratio” value in data set [2] was determined as 0.023.
